The values that follow come from ChEMBL document CHEMBL1134869, “Discovery of potent, selective human granzyme B inhibitors that inhibit CTL mediated apoptosis” (Bioorg Med Chem Lett, 2002).

Test [1] concerns the target T1, Granzyme B (Homo sapiens, UniProt P10144). Put plainly: Inhibition against human granzyme B.
Another test deals with T2, Caspase-3 (Homo sapiens) (UniProt P42574).
T2 sequence (whole entry): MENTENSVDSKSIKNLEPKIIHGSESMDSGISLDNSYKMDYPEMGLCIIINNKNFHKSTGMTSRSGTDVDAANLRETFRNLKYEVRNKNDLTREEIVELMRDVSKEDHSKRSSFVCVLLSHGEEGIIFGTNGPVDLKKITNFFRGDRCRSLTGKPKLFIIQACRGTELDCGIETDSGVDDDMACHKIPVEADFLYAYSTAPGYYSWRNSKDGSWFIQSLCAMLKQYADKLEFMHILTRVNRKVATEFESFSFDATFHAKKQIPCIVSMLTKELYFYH
The test can be described thus: Compound was tested for its inhibition against Caspase-3 at 50 uM; Not active.

A short description of test [2]: Inhibition of CTL mediated apoptosis using humanNK-92 natural killer cells acting on target K-562 cells whose DNA had previously been labeled with [125I]-iododeoxyuridine. Type of test: cell-based, Homo sapiens. To be noted: k562.
Test [3] deals with T1, Granzyme B. Put plainly: Compound was tested for its inhibition against human granzyme B; Not active.

Residues, ends and D or L forms follow the SMILES beside them. Bounds are passed on as bounds.

T1 sequence (P10144 whole entry): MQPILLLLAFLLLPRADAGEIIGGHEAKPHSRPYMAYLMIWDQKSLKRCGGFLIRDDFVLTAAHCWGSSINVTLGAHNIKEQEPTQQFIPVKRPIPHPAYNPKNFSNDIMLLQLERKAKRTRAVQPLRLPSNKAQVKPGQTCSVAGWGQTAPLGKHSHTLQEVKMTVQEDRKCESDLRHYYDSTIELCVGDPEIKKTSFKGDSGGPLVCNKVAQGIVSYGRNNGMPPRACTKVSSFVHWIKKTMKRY

In the case of `CC[C@H](C)[C@H](NC(C)=O)C(=O)NCC(=O)N1CCC[C@H]1C(=O)N[C@H](C=O)CC(=O)O` (Ac-IGPD-aldehyde), the Ki (as a rule, a dissociation constant, usually derived from enzyme kinetics or from competition with a known ligand) on Granzyme B [1] came to 0.27 µM.
On Granzyme B [1], `CC[C@H](C)[C@@H](C(=O)N[C@H]1CCc2cccc3c2N(C1=O)[C@H](C(=O)N[C@@H](CC(=O)O)C(=O)C(=O)OC)C3)N(C)C(C)=O` returned a Ki of 0.016 µM.
On Granzyme B [1], `CC[C@H](C)[C@@H](C(=O)N[C@H]1CCc2cccc3c2N(C1=O)[C@H](C(=O)N[C@@H](CC(=O)O)C(=O)c1nnc(-c2ccccc2)o1)C3)N(C)C(C)=O` yielded a Ki of 0.007 µM.
The compound `CC[C@H](C)[C@@H](C(=O)N[C@H]1CCc2cccc3c2N(C1=O)[C@H](C(=O)NCCC(=O)O)C3)N(C)C(C)=O` came in with an inhibition constant (Ki) at Granzyme B [1] of 0.58 µM. Moreover, the inhibition (in general, the relative decrease from the control value, in per cent) against Caspase-3 (Homo sapiens) was less than 50%.
Consider `CC[C@H](C)[C@H](NC(=O)Cc1csc2ccccc12)C(=O)N[C@H]1CCc2cccc3c2N(C1=O)[C@H](C(=O)NCc1cn[nH]c1)C3`, for which the Ki at Granzyme B [1] came out at 0.007 µM; in test [2] it was 0.0031 µM.
For `CC[C@H](C)[C@@H](C(=O)N[C@H]1CCc2cccc3c2N(C1=O)[C@H](C(=O)NCc1cn[nH]n1)C3)N(C)C(C)=O`, in that order: 0.038 µM and 0.03 µM.
At Granzyme B [1], `CC[C@H](C)[C@H](NC(C)=O)C(=O)Nc1cccn(CC(=O)N[C@H](C=O)CC(=O)O)c1=O` yielded a Ki of 0.133 µM.
Consider `CC[C@H](C)[C@@H](C(=O)N[C@H]1CCc2cccc3c2N(C1=O)[C@H](C(=O)NCc1cc[nH]n1)C3)N(C)C(C)=O`, for which the Ki entry on Granzyme B [3] is recorded as “Not Active”.
On Granzyme B [1], `CC[C@H](C)[C@@H](C(=O)N[C@H]1CCc2cccc3c2N(C1=O)[C@H](C(=O)N[C@@H](CC(=O)O)C(=O)CSCc1ccc(F)cc1)C3)N(C)C(C)=O` displayed a Ki of 2.3 µM.
On the same count and under the same terms, for `CC[C@H](C)[C@@H](C(=O)N[C@H]1CCc2cccc3c2N(C1=O)[C@H](C(=O)N[C@@H](CC(=O)O)C(=O)c1nc2ccccc2s1)C3)N(C)C(C)=O` the value was 0.085 µM.
Same read-out and setting: to `CC[C@H](C)[C@H](NC(C)=O)C(=O)NCC(=O)N1c2ccccc2C[C@H]1C(=O)N[C@H](C=O)CC(=O)O` belongs 0.013 µM.
Regarding `CC[C@H](C)[C@@H](C(=O)N[C@H]1CCc2cccc3c2N(C1=O)[C@H](C(=O)NCc1nc[nH]n1)C3)N(C)C(C)=O`, the Ki result at Granzyme B [3] is recorded as “Not Active”.
Turning to `CC[C@H](C)[C@H](NC(C)=O)C(=O)N[C@H]1CC[C@H]2CC[C@@H](C(=O)N[C@H](C=O)CC(=O)O)N2C1=O`, at Granzyme B [1], the Ki amounted to 0.122 µM.
Take `CC[C@H](C)[C@H](NC(=O)Cc1ccccc1)C(=O)N[C@H]1CCc2cccc3c2N(C1=O)[C@H](C(=O)NCc1cn[nH]c1)C3`: the Ki on Granzyme B [1] came to 0.013 µM; in test [2] it was 0.0063 µM.
`CC[C@H](C)[C@@H](C(=O)N[C@H]1CCc2cccc3c2N(C1=O)[C@H](C(=O)NCc1cc(=O)[nH]o1)C3)N(C)C(C)=O` yielded a Ki on Granzyme B [1] of 0.36 µM.
On the same count and under the same terms, for `CC[C@H](C)[C@H](NC(C)=O)C(=O)N[C@@H](CCC(=O)O)C(=O)N1CCC[C@H]1C(=O)N[C@H](C=O)CC(=O)O` (Ac-IEPD-aldehyde) the value was 0.08 µM.
Take `CC[C@H](C)[C@@H](C(=O)N[C@H]1CCc2cccc3c2N(C1=O)[C@H](C(=O)NCc1cn[nH]c1)C3)N(C)C(C)=O`: at Granzyme B [3], the Ki result is “Not Active”.
Regarding `CC(C)[C@@H](C(=O)N[C@H]1CCc2cccc3c2N(C1=O)[C@H](C(=O)NCc1cn[nH]n1)C3)c1ccccn1`, the results for the Ki (on Granzyme B [1]; in test [2]) were 0.075 µM and 0.03 µM, respectively.
`CC[C@H](C)[C@@H](C(=O)N[C@H]1CCc2cccc3c2N(C1=O)[C@H](C(=O)NCc1nnn[nH]1)C3)N(C)C(C)=O`: the Ki at Granzyme B [1] is 0.074 µM.
